“And” between values parts separate entries of the source, which are not always exact repeats. Equal values may be shown once. Inconclusive results are not listed.
System: MX-1 breast xenograft, intrarenal, nude mice, tumor weight
Test: NCI In Vivo Anticancer Drug Screen. Data for tumor model Human Mammary Carcinoma MX-1 Xenograft (intrarenal inoculation) in NU/NU BALB/C (nude) mice
Settings: endpoint: mean tumor weight change, higher = larger tumour
Outline: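 Mice w/ transplanted tumors, drug vs vehicle; endpoint survival or tumor size; value = T/C.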

[1] = dose: 100.0 mg/kg/injection, schedule: Q04DX003 (ip), vehicle: saline with Tween-80
[2] = dose: 200.0 mg/kg/injection, schedule: Q04DX003 (ip), vehicle: saline with Tween-80
[3] = dose: 400.0 mg/kg/injection, schedule: Q04DX003 (ip), vehicle: saline with Tween-80
[4] = dose: 300.0 mg/kg/injection, schedule: Q04DX003 (ip), vehicle: saline with Tween-80

## CS(=O)(=O)CS(=O)(=O)OCCCl
dose: 21.6 mg/kg/injection, schedule: Q04DX003 (ip), vehicle: other
  T/C: 61 % of control
dose: 36.0 mg/kg/injection, schedule: Q04DX003 (ip), vehicle: other
  T/C: 28 % of control
dose: 37.5 mg/kg/injection, schedule: Q04DX003 (sc), vehicle: suspension in saline
  T/C: 106 % of control
dose: 60.0 mg/kg/injection, schedule: Q04DX003 (ip), vehicle: other
  T/C: 25 % of control
dose: 75.0 mg/kg/injection, schedule: Q04DX003 (sc), vehicle: suspension in saline
  T/C: 106 % of control
dose: 99.6 mg/kg/injection, schedule: Q04DX003 (ip), vehicle: dextrose
  T/C: 100 % of control
dose: 99.6 mg/kg/injection, schedule: Q04DX003 (ip), vehicle: other
  T/C: 19 % of control
dose: 100.0 mg/kg/injection, schedule: Q04DX003 (ip), vehicle: other
  T/C: 43 % of control
dose: 150.0 mg/kg/injection, schedule: Q04DX003 (sc), vehicle: suspension in saline
  T/C: 54 % of control
dose: 166.0 mg/kg/injection, schedule: Q04DX003 (ip), vehicle: dextrose
  T/C: 37 % of control
dose: 166.0 mg/kg/injection, schedule: Q04DX003 (ip), vehicle: other
  T/C: 13 % of control
dose: 166.7 mg/kg/injection, schedule: Q04DX003 (ip), vehicle: other
  T/C: 20 % of control
dose: 276.67 mg/kg/injection, schedule: Q04DX003 (ip), vehicle: dextrose
  T/C: 19 % of control
dose: 276.67 mg/kg/injection, schedule: Q04DX003 (ip), vehicle: other
  T/C: 10 % of control

## N=C1CCCS1
dose: 18.75 mg/kg/injection, schedule: Q04DX003 (sc), vehicle: saline
  T/C: 108 % of control
dose: 37.5 mg/kg/injection, schedule: Q04DX003 (sc), vehicle: saline
  T/C: 91 % of control
dose: 75.0 mg/kg/injection, schedule: Q04DX003 (sc), vehicle: saline
  T/C: 124 % of control

## CCCCCCSc1nc(COC(=O)NC)c(COC(=O)NC)n1C
dose: 33.7 mg/kg/injection, schedule: Q04DX003 (ip), vehicle: saline
  T/C: 100 % of control
dose: 135.0 mg/kg/injection, schedule: Q04DX003 (ip), vehicle: saline
  T/C: 23 % of control

## CCNC=O
dose: 200.0 mg/kg/injection, schedule: Q01DX010 (sc), vehicle: saline
  T/C: 85 % of control
dose: 400.0 mg/kg/injection, schedule: Q01DX010 (sc), vehicle: saline
  T/C: 70 % of control
dose: 800.0 mg/kg/injection, schedule: Q01DX010 (sc), vehicle: saline
  T/C: 27 % of control

## C[C@@]1(CO)[C@H](O)CC[C@@]2(C)[C@H]1CC[C@H]1C[C@@H]3C[C@@]12CC[C@@]3(O)COC(=O)CN
dose: 50.0 mg/kg/injection, schedule: Q04DX003 (ip), vehicle: saline + alcohol
  T/C: 107 % of control
dose: 100.0 mg/kg/injection, schedule: Q04DX003 (ip), vehicle: saline + alcohol
  T/C: 95 % of control

## O=C(Nc1ccccc1)c1c(O)[nH]c(=O)[nH]c1=O
[1]
  T/C: 102 % of control
[2]
  T/C: 71 % of control
[3]
  T/C: 57 % of control

## CCOC(=O)C(N)CSC(=O)NC (stereo not given)
dose: 112.5 mg/kg/injection, schedule: Q04DX003 (ip), vehicle: Klucel (hydroxypropylcellulose) (HPC)
  T/C: 54 % of control
dose: 125.0 mg/kg/injection, schedule: Q04DX003 (sc), vehicle: saline
  T/C: 72 % of control
dose: 225.0 mg/kg/injection, schedule: Q04DX003 (ip), vehicle: Klucel (hydroxypropylcellulose) (HPC)
  T/C: 14 % of control
dose: 225.0 mg/kg/injection, schedule: Q04DX003 (sc), vehicle: saline
  T/C: 26 % of control
dose: 450.0 mg/kg/injection, schedule: Q04DX003 (ip), vehicle: Klucel (hydroxypropylcellulose) (HPC)
  T/C: 9 % of control
dose: 450.0 mg/kg/injection, schedule: Q04DX003 (sc), vehicle: saline
  T/C: 2 % of control
dose: 900.0 mg/kg/injection, schedule: Q04DX003 (sc), vehicle: saline
  T/C: -19 % of control

## Nc1ccn([C@@H](C=O)C[C@@H](C=O)CO)c(=O)n1
dose: 75.0 mg/kg/injection, schedule: Q04DX003 (ip), vehicle: saline
  T/C: 76 % of control
dose: 150.0 mg/kg/injection, schedule: Q04DX003 (ip), vehicle: saline
  T/C: 124 % of control

## CNC(=O)Sc1ccc(C)c(N(C)C)c1
dose: 150.0 mg/kg/injection, schedule: Q04DX003 (ip), vehicle: saline with Tween-80
  T/C: 92 % of control
[4]
  T/C: 44 % of control

## O=C(NC(Cc1ccc(I)cc1)C(=O)O)c1cccc(Br)c1 (stereo not given)
dose: 150.0 mg/kg/injection, schedule: Q04DX003 (ip), vehicle: Klucel (hydroxypropylcellulose) (HPC)
  T/C: 57 % of control
dose: 300.0 mg/kg/injection, schedule: Q04DX003 (ip), vehicle: Klucel (hydroxypropylcellulose) (HPC)
  T/C: 72 % of control
dose: 600.0 mg/kg/injection, schedule: Q04DX003 (ip), vehicle: Klucel (hydroxypropylcellulose) (HPC)
  T/C: 76 % of control

## O=C[C@@H](CO)O[C@H](C=O)c1c[nH]c(=O)[nH]c1=O
dose: 25.0 mg/kg/injection, schedule: Q04DX003 (ip), vehicle: saline
  T/C: 71 % of control
dose: 37.5 mg/kg/injection, schedule: Q04DX003 (ip), vehicle: saline
  T/C: 54 % of control
dose: 100.0 mg/kg/injection, schedule: Q04DX003 (ip), vehicle: saline
  T/C: 5 % of control and 9 % of control and 28 % of control
dose: 125.0 mg/kg/injection, schedule: Q04DX003 (ip), vehicle: saline
  T/C: 4 % of control and 7 % of control

## ClCC[N+]12CC[N+](CCCl)(CC1)C2
dose: 75.0 mg/kg/injection, schedule: Q04DX003 (sc), vehicle: water
  T/C: 34 % of control
dose: 100.0 mg/kg/injection, schedule: Q01DX010 (sc), vehicle: saline with Tween-80
  T/C: 23 % of control and 27 % of control
dose: 150.0 mg/kg/injection, schedule: Q04DX003 (sc), vehicle: water
  T/C: 18 % of control
dose: 200.0 mg/kg/injection, schedule: Q01DX010 (sc), vehicle: saline with Tween-80
  T/C: 16 % of control and 19 % of control
dose: 300.0 mg/kg/injection, schedule: Q04DX003 (sc), vehicle: water
  T/C: 3 % of control

## O=C1NC(=O)NC(C(=O)O)N1
dose: 200.0 mg/kg/injection, schedule: Q04DX003 (sc), vehicle: Klucel (hydroxypropylcellulose) (HPC)
  T/C: 96 % of control
dose: 400.0 mg/kg/injection, schedule: Q04DX003 (sc), vehicle: Klucel (hydroxypropylcellulose) (HPC)
  T/C: 108 % of control

## N#Cc1c(-c2ccccc2)c(-c2ccccc2)nn(CC(=O)O)c1=O
dose: 100.0 mg/kg/injection, schedule: Q04DX003 (ip), vehicle: distilled water + Tween-80
  T/C: 120 % of control
dose: 200.0 mg/kg/injection, schedule: Q04DX003 (ip), vehicle: distilled water + Tween-80
  T/C: 85 % of control

## C=C(OC)C(Nc1cc(OC)c(OC)cc1C(=O)OC1CC(O[C@@H]2C(=O)C(NC(=O)OC)=C3/C(=C\CSSSC)[C@]2(O)C#C/C=C\C#C[C@@H]3OC2OC(C)C(NOC3CC(O)C(SC)C(C)O3)C(O)C2OC2CC(OC)C(NCCC)CO2)OC(C)C1O)OC (stereo not given in full)
dose: 0.31 micrograms/kg/injection, schedule: Q04DX003 (ip), vehicle: alcohol
  T/C: 71 % of control
dose: 0.32 micrograms/kg/injection, schedule: Q04DX003 (ip), vehicle: saline + alcohol
  T/C: 39 % of control
dose: 0.62 micrograms/kg/injection, schedule: Q04DX003 (ip), vehicle: alcohol
  T/C: 68 % of control
dose: 0.64 micrograms/kg/injection, schedule: Q04DX003 (ip), vehicle: saline + alcohol
  T/C: 17 % of control
dose: 1.25 micrograms/kg/injection, schedule: Q04DX003 (ip), vehicle: alcohol
  T/C: 22 % of control
dose: 1.28 micrograms/kg/injection, schedule: Q04DX003 (ip), vehicle: saline + alcohol
  T/C: 27 % of control
dose: 2.5 micrograms/kg/injection, schedule: Q04DX003 (ip), vehicle: alcohol
  T/C: 26 % of control
dose: 2.56 micrograms/kg/injection, schedule: Q04DX003 (ip), vehicle: saline + alcohol
  T/C: 13 % of control
dose: 5.0 micrograms/kg/injection, schedule: Q04DX003 (ip), vehicle: alcohol
  T/C: 12 % of control

## Oc1cc(O)cc(/C=C/c2ccc(O)c(O)c2)c1
dose: 25.0 mg/kg/injection, schedule: Q04DX003 (ip), vehicle: DMSO
  T/C: 90 % of control
dose: 37.5 mg/kg/injection, schedule: Q04DX003 (ip), vehicle: DMSO
  T/C: 123 % of control
dose: 50.0 mg/kg/injection, schedule: Q04DX003 (ip), vehicle: DMSO
  T/C: 69 % of control
dose: 75.0 mg/kg/injection, schedule: Q04DX003 (ip), vehicle: DMSO
  T/C: 71 % of control
dose: 100.0 mg/kg/injection, schedule: Q04DX003 (ip), vehicle: DMSO
  T/C: 48 % of control
dose: 150.0 mg/kg/injection, schedule: Q04DX003 (ip), vehicle: DMSO
  T/C: 67 % of control

## COc1ccc(O)cc1
dose: 50.0 mg/kg/injection, schedule: Q04DX003 (ip), vehicle: saline with Tween-80
  T/C: 76 % of control
[1]
  T/C: 87 % of control
[2]
  T/C: 79 % of control
[3]
  T/C: 53 % of control

## S=C(NCNC(=S)c1ccncc1)c1ccncc1
[4]
  T/C: 97 % of control
dose: 600.0 mg/kg/injection, schedule: Q04DX003 (ip), vehicle: saline with Tween-80
  T/C: 40 % of control
